Data as given in US6548515B1, “Dihydrofuro[3,4-b]quinolin-1-one compounds” (Les Laboratories Servier, priority 1999, dated 2003).

Tests used:
murine leukaemia, L1210 = assay: Cytotoxicity in vitro (Microculture Tetrazolium Assay), L1210; assay type: cell-based; settings: Mus musculus, 48 h; L1210 cells, incubated 2 days, inhibition of proliferation by 50%
Procedure: (§1) Three cell lines are used:
1 murine leukaemia, L1210,
(§2) The cells are cultured in complete RPMI 1640 culture medium containing 10% foetal calf serum, 2 mM glutamine, 50 units/ml of penicillin, 50 μg/ml of streptomycin and 10 mM Hepes, pH=7.4. The cells are distributed in microplates and exposed to the cytotoxic compounds. The cells are then incubated for 2 days (L1210) or 4 days (A549, HT29). The number of viable cells is then quantified by means of a calorimetric assay, the Microculture Tetrazolium Assay (Cancer Res. 1987, 47, 939-942).
(§3) The results are expressed as IC50, the concentration of cytotoxic agent that inhibits the proliferation of the treated cells by 50%.

[1] = system: human colon carcinoma, HT29; assay: Cytotoxicity in vitro (Microculture Tetrazolium Assay), HT29; assay type: cell-based; settings: HT-29, 96 h, HT29 cells, incubated 4 days, inhibition of proliferation by 50%
Procedure: as §1
1 human colon carcinoma, HT29
as §2, §3

[2] = system: human non-small-cell lung carcinoma, A549; assay: Cytotoxicity in vitro (Microculture Tetrazolium Assay), A549; assay type: cell-based; settings: 96 h, A549 cells, incubated 4 days, inhibition of proliferation by 50%
Procedure: as §1
1 human non-small-cell lung carcinoma, A549,
as §2, §3

P388 (murine leukaemia) = assay: In vivo anti-tumour activity on P388 leukaemia; set-up: species or system female BDF1 mice; settings: P388 i.p. in BDF1 mice, intraperitoneal route on day 1, active from the 50 mg/kg dose
Procedure: Line P388 (murine leukaemia) was supplied by the National Cancer Institute (Frederick, USA). The tumour cells (10^6 cells) were inoculated on day 0 into the peritoneal cavity of female BDF1 mice (Iffa-Credo, France) weighing from 18 to 20 g (groups of 6 animals). The products were administered by the intraperitoneal route on day 1 (D1).
The anti-tumour activity is expressed as % T/C: [formula]

| Structure (SMILES) | IC50 (murine leukaemia, L1210) [nM] | IC50 [1] [nM] | IC50 [2] [nM] | T/C (survival of the treated animals) (P388 (murine leukaemia)) [%] |
| --- | --- | --- | --- | --- |
| COc1cc(C2C3=C(COC3=O)N(C)c3cc4c(cc32)OCO4)cc(OC)c1OC (racemic) [Example 1, (±)-4-Methyl-6,7-methylenedioxy-9-(3,4,5-trimethoxyphenyl)-4,9-dihydrofuro[3,4-b]quinolin-1(3H)-one] | 53 | 104 | 102 | ≥ 200 |
| COc1cc(C2C3=C(COC3=O)Nc3cc4c(cc32)OCO4)cc(OC)c1OC (racemic) [Example 10, (±)-6,7-Methylenedioxy-9-(3,4,5-trimethoxyphenyl)-4,9-dihydrofuro[3,4-b]quinolin-1(3H)-one] | 12 | 18 | 22 |  |
| COc1cc(CN2C3=C(C(=O)OC3)C(c3cc(OC)c(OC)c(OC)c3)c3cc4c(cc32)OCO4)cc(OC)c1O (racemic) [Example 8, (±)-4-(3,5-Dimethoxy-4-hydroxybenzyl)-6,7-methylenedioxy-9-(3,4,5-trimethoxyphenyl)-4,9-dihydrofuro[3,4-b]quinolin-1(3H)-one] | 62 | 153 | 147 |  |
